Results reported in PubChem BioAssay AID330 (DTP/NCI, 2004).
Values joined by “and” are separate entries in the source; they are usually repeats but may differ in a detail not shown here. Identical values can stand only once. Toxic doses and inconclusive results are not listed.

Tested on: P388 leukemia ip, CD2F1 mice, survival T/C
Experiment: NCI In Vivo Anticancer Drug Screen. Data for tumor model P388 Leukemia (intraperitoneal) in CD2F1 (CDF1) mice
Details: endpoint: median survival time, higher = longer survival
In short: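 Mice carrying the transplanted tumor received test compound or vehicle. Survival was recorded in each group, and the value is the treated-group measurement divided by that of the vehicle-treated control group.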

[1] = dose: 120.0 mg/kg/injection, schedule: Q01DX005 (ip), vehicle: saline
[2] = dose: 50.0 mg/kg/injection, schedule: Q01DX009 (ip), vehicle: saline with Tween-80
[3] = dose: 100.0 mg/kg/injection, schedule: Q01DX009 (ip), vehicle: saline with Tween-80
[4] = dose: 100.0 mg/kg/injection, schedule: Q01DX005 (ip), vehicle: saline with Tween-80
[5] = dose: 25.0 mg/kg/injection, schedule: Q01DX001 (ip), vehicle: saline with Tween-80
[6] = dose: 100.0 mg/kg/injection, schedule: Q01DX001 (ip), vehicle: saline with Tween-80
[7] = dose: 60.0 mg/kg/injection, schedule: Q01DX005 (ip), vehicle: saline with Tween-80
[8] = dose: 120.0 mg/kg/injection, schedule: Q01DX005 (ip), vehicle: saline with Tween-80
[9] = dose: 240.0 mg/kg/injection, schedule: Q01DX005 (ip), vehicle: saline with Tween-80

C=C1C(=O)CC2C3C1C2(C)CCC(OC(C)=O)C3(C)C (configuration not stated)
T/C (dose: 5.5 mg/kg/injection, schedule: Q01DX005 (ip), vehicle: Klucel (hydroxypropylcellulose) (HPC)): 93 % of control
T/C (dose: 11.0 mg/kg/injection, schedule: Q01DX005 (ip), vehicle: Klucel (hydroxypropylcellulose) (HPC)): 93 % of control
T/C (dose: 22.0 mg/kg/injection, schedule: Q01DX005 (ip), vehicle: Klucel (hydroxypropylcellulose) (HPC)): 100 % of control
T/C (dose: 44.0 mg/kg/injection, schedule: Q01DX005 (ip), vehicle: Klucel (hydroxypropylcellulose) (HPC)): 103 % of control

COc1ccc(/C=C/C(=O)C(C)(CN(C)C)CN(C)C)cc1
T/C (dose: 30.0 mg/kg/injection, schedule: Q01DX005 (ip), vehicle: saline): 123 % of control
T/C [1]: 121 % of control

CC(C)N(C(N)=O)c1ccc2c(c1)OCO2
T/C [2]: 98 % of control
T/C [3]: 107 % of control
T/C (dose: 200.0 mg/kg/injection, schedule: Q01DX009 (ip), vehicle: saline with Tween-80): 98 % of control

CCCCOC(=O)NC(=O)c1cc2cc(Cl)ccc2oc1=O
T/C (dose: 50.0 mg/kg/injection, schedule: Q01DX005 (ip), vehicle: saline with Tween-80): 95 % of control
T/C [4]: 88 % of control

Clc1ccc(CC(Cn2ccnc2)c2ccccc2Cl)cc1 (configuration not stated)
T/C [2]: 94 % of control
T/C [3]: 86 % of control

O=C1C2C3C=CC(C2C(=O)N1Cc1ccccc1)C1C2C(=O)N(Cc4ccccc4)C(=O)C2C31 (configuration not stated)
T/C (dose: 12.5 mg/kg/injection, schedule: Q01DX001 (ip), vehicle: saline with Tween-80): 101 % of control
T/C [5]: 90 % of control

O=C1OC2c3ccccc3C(=O)C2(c2ccccc2)O1 (configuration not stated)
T/C [6]: 97 % of control
T/C [4]: 97 % of control
T/C (dose: 200.0 mg/kg/injection, schedule: Q01DX001 (ip), vehicle: saline with Tween-80): 97 % of control
T/C (dose: 200.0 mg/kg/injection, schedule: Q01DX005 (ip), vehicle: saline with Tween-80): 97 % of control
T/C (dose: 400.0 mg/kg/injection, schedule: Q01DX001 (ip), vehicle: saline with Tween-80): 96 % of control
T/C (dose: 400.0 mg/kg/injection, schedule: Q01DX005 (ip), vehicle: saline with Tween-80): 96 % of control

NC(N)=NCCSCc1ccc2ccccc2n1
T/C (dose: 50.0 mg/kg/injection, schedule: Q01DX005 (ip), vehicle: saline): 94 % of control
T/C (dose: 100.0 mg/kg/injection, schedule: Q01DX005 (ip), vehicle: saline): 101 % of control

COP(=O)(O)OC.[Ti]
T/C [5]: 100 % of control
T/C (dose: 50.0 mg/kg/injection, schedule: Q01DX001 (ip), vehicle: saline with Tween-80): 100 % of control
T/C [6]: 96 % of control

CC(=O)CCC12CCC(=O)N1Cc1ccccc1C2=O (configuration not stated)
T/C [7]: 106 % of control
T/C [8]: 123 % of control
T/C [9]: 106 % of control

C=CCC(NC(=O)CCl)C(=O)O (configuration not stated)
T/C (dose: 50.0 mg/kg/injection, schedule: Q01DX009 (ip), vehicle: saline): 92 % of control
T/C (dose: 100.0 mg/kg/injection, schedule: Q01DX009 (ip), vehicle: saline): 90 % of control

CCOC(=O)c1c[nH]n(Cc2ccccc2)c1=O
T/C [7]: 100 % of control
T/C [8]: 100 % of control
T/C [9]: 95 % of control

Cc1[nH]n(-c2cc(S(=O)(=O)O)ccc2Cl)c(=O)c1N=Nc1c(NC(=O)c2ccc(N)cc2)ccc2cc(S(=O)(=O)O)ccc12
T/C (dose: 50.0 mg/kg/injection, schedule: Q01DX005 (ip), vehicle: Klucel (hydroxypropylcellulose) (HPC)): 96 % of control
T/C (dose: 100.0 mg/kg/injection, schedule: Q01DX005 (ip), vehicle: Klucel (hydroxypropylcellulose) (HPC)): 105 % of control
T/C (dose: 200.0 mg/kg/injection, schedule: Q01DX005 (ip), vehicle: Klucel (hydroxypropylcellulose) (HPC)): 115 % of control

OCC1CC=CCC1 (configuration not stated)
T/C (dose: 100.0 mg/kg/injection, schedule: Q04DX003 (ip), vehicle: saline with Tween-80): 90 % of control
T/C (dose: 200.0 mg/kg/injection, schedule: Q04DX003 (ip), vehicle: saline with Tween-80): 100 % of control
T/C (dose: 400.0 mg/kg/injection, schedule: Q04DX003 (ip), vehicle: saline with Tween-80): 90 % of control

CN(C(=O)C1CC1)c1ccccc1
T/C [2]: 105 % of control
T/C [3]: 107 % of control

O=S(=O)(NC(=S)S)c1ccccc1
T/C (dose: 12.5 mg/kg/injection, schedule: Q01DX009 (ip), vehicle: water): 102 % of control and 88 % of control and 94 % of control
T/C (dose: 25.0 mg/kg/injection, schedule: Q01DX009 (ip), vehicle: water): 104 % of control and 107 % of control and 94 % of control
T/C (dose: 50.0 mg/kg/injection, schedule: Q01DX009 (ip), vehicle: water): 102 % of control and 106 % of control and 116 % of control
T/C (dose: 100.0 mg/kg/injection, schedule: Q01DX009 (ip), vehicle: water): 112 % of control (2×) and 123 % of control

O=S(=O)(O)C(O)C(F)(F)C(F)(F)C(F)(F)F (configuration not stated)
T/C (dose: 60.0 mg/kg/injection, schedule: Q01DX005 (ip), vehicle: saline): 98 % of control
T/C [1]: 94 % of control
T/C (dose: 240.0 mg/kg/injection, schedule: Q01DX005 (ip), vehicle: saline): 99 % of control

Cc1ccc2c(c1)NC(=O)CC(c1ccccc1)=N2
T/C [7]: 97 % of control
T/C [8]: 96 % of control
T/C [9]: 96 % of control
